This passage reports relative viability results from the supplement of paper PMC10307832.

What all share (assay): relative viability (nuclei count vs DMSO), 5 days (fraction); higher = more cells survive
Compound in experiment [1]: C1=CC=C(C(=C1)C2=CC=C(C=C2)C3=CSC4=C3C(=C(C(=O)N4)C#N)O)O + C[C@@H](Oc1cc(-c2cnn(C3CCNCC3)c2)cnc1N)c1c(Cl)ccc(F)c1Cl [Crizotinib] (partner 1 µM)
A digest of the protocol: (§1)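 Lung cancer cell lines in 1536-well plates were dosed by pin tool the day after seeding, either with one drug alone or with a fixed anchor-drug dose plus five library-drug doses (not always all listed) in √10 steps. After 5 days, cells were fixed and their nuclei stained in one step (final 0.05% Triton X-100, 1% formaldehyde, 1 ug/ml Hoechst), then counted on 4× images. Relative viability is the nuclei count in treated wells divided by that in vehicle wells. Values are medians of duplicate plates.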

Compound in experiment [2]: CC1=CN2C(=O)C=C(N=C2C(=C1)C(C)NC3=CC=CC=C3)N4CCOCC4 [TGX 221] + CC1(C)CCC(c2ccc(Cl)cc2)=C(CN2CCN(c3ccc(C(=O)NS(=O)(=O)c4ccc(N[C@H](CCN5CCOCC5)CSc5ccccc5)c(S(=O)(=O)C(F)(F)F)c4)cc3)CC2)C1 [Navitoclax] (partner 0.5 µM)
A digest of the protocol: as §1

Compound in experiment [3]: CC1=CN2C(=O)C=C(N=C2C(=C1)C(C)NC3=CC=CC=C3)N4CCOCC4 [TGX 221] + Cc1nc(NC(=O)N2CCC[C@H]2C(N)=O)sc1-c1ccnc(C(C)(C)C(F)(F)F)c1 [Alpelisib] (partner 2 µM)
A digest of the protocol: as §1

Compound in experiment [4]: O=C(CCCCCCNC(=O)c1cnc(N(c2ccccc2)c2ccccc2)nc1)NO [Ricolinostat] + Cc1nc(NC(=O)N2CCC[C@H]2C(N)=O)sc1-c1ccnc(C(C)(C)C(F)(F)F)c1 [Alpelisib] (partner 2 µM)
The gist of the method: as §1

Take NCI-H1792: the relative viability in experiment [1] (first compound 0.253 µM) worked out at 0.915; in experiment [1] (first compound 0.8 µM), 1.15; in experiment [1] (first compound 2.53 µM) it was 1.13; in experiment [1] (first compound 8 µM), 0.43; in experiment [2] (first compound 0.08 µM), 0.549; in experiment [2] (first compound 0.253 µM), 0.713. Besides, the relative viability was determined as 0.591 in experiment [2] (first compound 0.8 µM); 0.62 in experiment [2] (first compound 2.53 µM); 0.625 in experiment [2] (first compound 8 µM); 0.609 in experiment [3] (first compound 0.08 µM); 0.599 in experiment [3] (first compound 0.253 µM); 0.698 in experiment [3] (first compound 0.8 µM). The relative viability in experiment [3] (first compound 2.53 µM) was 0.511; in experiment [3] (first compound 8 µM), 0.432; in experiment [4] (first compound 0.08 µM), 0.55; in experiment [4] (first compound 0.253 µM), 0.661; in experiment [4] (first compound 0.8 µM), 0.67; in experiment [4] (first compound 2.53 µM), 0.59.
